The source of these data is patent US4997854A, “Anti-fibrotic agents and methods for inhibiting the activity of lysyl oxidase in-situ using adjacently positioned diamine analogue substrates” (Trustees of Boston University, priority 1989, dated 1991).

For test [1], the target named is T1, lysyl oxidase (Bos taurus, UniProt P33072).
T1 construct: Lysyl oxidase was purified from bovine aorta as previously described; from tissue; host or cells: bovine aorta
T1 sequence (P33072 170-418): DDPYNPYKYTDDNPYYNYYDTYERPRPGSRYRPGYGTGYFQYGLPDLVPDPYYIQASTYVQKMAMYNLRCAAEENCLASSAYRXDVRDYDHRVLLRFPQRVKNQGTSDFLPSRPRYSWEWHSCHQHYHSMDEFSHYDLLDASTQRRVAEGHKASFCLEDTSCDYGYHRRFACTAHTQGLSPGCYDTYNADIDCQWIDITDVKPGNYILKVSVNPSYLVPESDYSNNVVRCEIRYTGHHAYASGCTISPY
Description: Release of 3H+ from [1,2-3H]DACH by lysyl oxidase. The format is biochemical, bovine. To be noted: for Ratio ^3 H^+/Oxidant / ^3 H^+ Released: 1 mM [^3 H]DACH; for ^3 H^+ Released: pH 8, 37°C, maximum level. The procedure:
^a/ The indicated amounts of PQQ or functional active sites of lysyl
oxidase were incubated with [^3 H]DACH (1 mM; 0.13 mCi/mmole) in 50 m
sodium borate, pH 8, at 37°C. and aliquots of the incubation
mixture were removed at intervals, distilled in vacuo and the isolated
[^3 H]H2 O was quantified by liquid scintillation spectrometry.
The values shown are the maximum levels accumulated in these assays and
are corrected for minor background
effects in the absence of oxidant.
Toward similar ends [1,2-^3 H]DACH was synthesized and used to determine whether the reaction of this diamine with limiting quantities of free PQQ or of lysyl oxidase would result in the release of ^3 H^+ --a result to be expected if carbon 1 and/or carbon 2 positions of cis-DACH were oxidized in these reaction mixtures. As provided by Table E2, approximately 2 moles of ^3 H^+ were released per mole of each limiting reactant; with a maximum of 2.30 moles of ^3 H^+ released per mole of PQQ and a maximum of 1.88 moles of ^3 H^+ released per mole of functional active site in lysyl oxidase. While the synthetic, tritiated product used in these studies consisted of a mixture of the cis and trans isomers, the concentration of [^3 H]DACH incubated with the lysyl oxidase enzyme was sufficiently low to restrict the reaction primarily to the cis isomer--based upon the previous assessment of the relative potency of these compounds as inhibitors of lysyl oxidase or as perturbants of the spectrum of PQQ.

For test [2], the target named is T1, lysyl oxidase. Put plainly: Lysyl oxidase peroxidase-coupled fluorescence assay of n-hexylamine oxidation. Type of test: biochemical, bovine. The procedure: Lysyl oxidase was purified from bovine aorta as previously described. [Williams, M. A. and H. M. Kagan, Anal. Biochem. 113:336 (1985)].
(§1) The purified lysyl oxidase enzyme was also assayed against alkyl monoamines and alkyl diamines using the reported peroxidase-coupled fluorescence method at 55° C. [Trackman et al., Anal. Biochem. 113:336-342 (1981)]. The reaction mixtures contained 40 ug horseradish peroxidase, 0.7 mM homovanillic acid, 1.2M urea, 0.02M potassium phosphate/borate buffer, at pH 8 (or at varying values of pH as indicated) in a total volume of 2 ml. Assay solutions were adjusted to an ionic strength of 0.04 using potassium chloride. Lysyl oxidase was then added to initiate the reaction. Fluorescence was continuously monitored at an excitation wavelength of 315 nm and an emission wavelength of 425 nm. The enzyme-dependent production of hydrogen peroxide was quantified by reference to standard plots relating nanomoles of hydrogen peroxide added to fluorescence units. […] Kinetic constants were derived from initial rate assay data by using the Fortan program of Cleland [Meth. Enzymol. 63:103-138 (1979)] which determines Vmax and Km values from data of Michaelis-Menten experiments using a least squares fitting procedure applied to the Michaelis-Menten equation.
The pH-dependency of the Vmax for the oxidation of a series of diamines and monoamine substrates by lysyl oxidase was first explored.
(§2) Accordingly cis and trans isomers of DACH were used to probe this possibility.

Test [3] addresses T1, lysyl oxidase. Description: Protein-bound copper of lysyl oxidase by atomic absorption spectroscopy. Details: species or system bovine. The settings on record: 1 mM, then dialyzed against metal-free buffer. The procedure:
In addition, the time-dependency for the expression of irreversible inhibition was assessed by initially preincubating lysyl oxidase at 37° in the presence or absence of various concentrations of cis-DACH; and then diluting aliquots of these individual reaction mixtures into peroxidase-coupled assays for n-hexylamine oxidation - thereby reducing the cis-DACH concentrations to non-inhibitory levels within the lysyl oxidase assays. […] This is illustrated by FIG. 4. […] The possibility that the inactivation derived from the removal of the metal ion cofactor of the enzyme by the cyclic diamine was then assessed by atomic absorption spectroscopy. This method of analysis yielded the same values for protein-bound copper in aliquots of purified lysyl oxidase which had been incubated in either the presence or absence of 1 mM cis-DACH and then dialyzed extensively against metal-free buffer.

For test [4], the target named is T1, lysyl oxidase. Description: Perturbation of the absorption spectrum of lysyl oxidase. Details: species or system bovine. The method, then: Absorption spectra were recorded in 1 cm cuvettes with a Hewlett Packard Diode Array spectrophotometer, with temperatures controlled by circulating water through the cuvette holder. Mixtures were made anaerobic by purging buffers and stock solutions in rubber-capped tubes with high purity nitrogen for 15 min, and then injecting aliquots of the solutions into a 1 cm semi-micro cuvette fitted with a rubber septum and flushed with nitrogen before addition of reagents. Once in the capped cuvette, each solution was further exposed to a stream of nitrogen passed over the surface of the solution and out of the capped cuvette through 21 guage needles for 5 min. just prior to spectral recording. Each perturbation described was reproducible in three or more trials.
Increased absorption occurs in accordance with an increase in optical density occurring in the region of 250 nm; a broad peak also develops with a maximum absorbance at 350-355 nm upon incubation of 47 uM cis-DACH with 4.25 uM of functional active sites in lysyl oxidase as shown in FIG. 6B. The absorption peak at 350-355 nm correlates quite well with a peak generated at the same position in the spectrum of PQQ by its interaction with cis-DACH.

Test [5] has as its target T1, lysyl oxidase. Description: Release of H2O2 on oxidation of cis-DACH by lysyl oxidase. The format is biochemical, bovine. To be noted: for Ratio H2O2/Oxidant / H2O2 Released: 1 mM cis-DACH; for H2O2 Released: maximal release. The procedure: as §1
In view of the apparent inhibiting effect of anaerobic conditions on the induction by cis-DACH of changes in the spectra of PQQ and lysyl oxidase, the possibility was evaluated that oxidation of the diamine substrate analogue may be involved in the development of irreversible inhibition of lysyl oxidase. […] This argues against significant catalytic turnover with the cyclic diamine. Nevertheless, as illustrated by FIG. 7, the development of irreversible inhibition was strongly dependent upon the presence of oxygen since the rate of inactivation was negligible under anaerobic conditions.
Toward that end, evidence was sought for the release of H2 O2 upon the reaction of cis-DACH with limiting amounts of PQQ or of relatively large quantities (although limiting relative to cis-DACH) of pure lysyl oxidase. As given by Table E1, hydrogen peroxide formation was seen under these conditions with the maximum levels of H2 O2 formed essentially equal to the amount of the limiting reactant in both cases, i.e., free PQQ or lysyl oxidase, respectively.
^a/ Hydrogen peroxide as assayed in the peroxidasecoupled fluorescenc
assay using 1 mM cisDACH as the sole source of amine substrate and
containing lysyl oxidase or PQQ at the indicated amounts. Incubations wer
continued until the release of H2 O2 was maximal in each case.
The quantity of lysyl oxidase used is expressed in the Table in terms of
functional active site content. The concentration of PQQ was determined
using 19,122 as the molar extinction coefficent.

Test [6] deals with T1, lysyl oxidase. Description: Irreversible, time-dependent inactivation of lysyl oxidase (preincubation, then dialysis or dilution into the assay). Type of test: biochemical, bovine. To be noted: for rate of inactivation under anaerobic conditions: anaerobic / nitrogen-purged. The procedure:
as §2
In addition, the time-dependency for the expression of irreversible inhibition was assessed by initially preincubating lysyl oxidase at 37° in the presence or absence of various concentrations of cis-DACH; and then diluting aliquots of these individual reaction mixtures into peroxidase-coupled assays for n-hexylamine oxidation - thereby reducing the cis-DACH concentrations to non-inhibitory levels within the lysyl oxidase assays. […] The possibility that the inactivation derived from the removal of the metal ion cofactor of the enzyme by the cyclic diamine was then assessed by atomic absorption spectroscopy.

Setting [7] is: lysyl oxidase as oxidant, mean of 3 amounts.
Where [8] appears, read: n-hexylamine substrate, competitive, read-out: KI, competitive inhibition of lysyl oxidase activity against n-hexylamine.

Like-named read-outs stand apart in the source and are kept apart here.

On to `[3H]C1(N)CCCCC1([3H])N` (centres unmarked) [[1,2-^3 H]DACH, [1,2-^3 H]-1,2-diaminocyclohexane], for which the “Ratio ^3 H^+/Oxidant” value in test [1] (0.50 nanomoles lysyl oxidase active sites) turned out to be 1.96; in test [1] (1.24 nanomoles lysyl oxidase active sites), 1.80; in test [1] (3.72 nanomoles lysyl oxidase active sites) it was 1.87. The “^3 H^+ Released” value in test [1] (0.50 nanomoles lysyl oxidase functional active sites) is 0.98 Nanomoles; in test [1] (1.24 nanomoles lysyl oxidase functional active sites) it was 2.23 Nanomoles; in test [1] (3.72 nanomoles lysyl oxidase functional active sites) it was 6.95 Nanomoles. For the same compound, the “^3 H^+ released per mole of functional active site in lysyl oxidase” value in test [1] (limiting lysyl oxidase) is on record as 1.88 moles of ^3 H^+ released per mole of functional active site. In addition, the “Ratio ^3 H^+/Oxidant, mean” value in test [1] (setting [7]) was found to be 1.88 ± 0.07.
`N[C@@H]1CCCC[C@H]1N` (relative stereo) [trans-DACH, 1,2-Diaminocyclohexane, reference compound]: the IC50 in test [2] (n-hexylamine oxidation, extrapolated, read-out: (extrapolated) I50 in assays of n-hexylamine oxidation) is > 10000 µM. Also, the “fold less inhibitory than cis-DACH” value in test [2] (n-hexylamine oxidation, relative to cis-DACH) was “at least 10,000 fold”.
By Ki is commonly meant a dissociation constant, usually derived from enzyme kinetics or from competition with a known ligand. For orientation: kinact means the maximal first-order rate at which the target is inactivated. As for `N[C@@H]1CCCC[C@@H]1N` [cis-DACH, 1,2-Diaminocyclohexane], the “removal of copper from the active site” value in test [3] was “did not remove copper”. Besides, in test [4] (aerobic, 47 uM cis-DACH with 4.25 uM functional active sites), the “perturbation of the lysyl oxidase spectrum” value is on record as “perturbed”. Besides, the “perturbation of the lysyl oxidase spectrum under anaerobic conditions” value in test [4] (anaerobic) is on record as “not altered significantly”. Also, the Ki in test [2] (as restated in the summary, read-out: KI) was 0.38 µM; in test [2] (setting [8]) it was 0.38 µM. For the same compound, in test [2] (n-hexylamine oxidation, read-out: I50 in assays of n-hexylamine oxidation), the IC50 stood at 1.5 µM. The results for the “Ratio H2O2/Oxidant” value in test [5] (0.71 nanomoles lysyl oxidase active sites), in test [5] (1.78 nanomoles lysyl oxidase active sites) and in test [5] (2.20 nanomoles lysyl oxidase active sites) were 1.40, 0.96 and 0.69, respectively. Moreover, the “H2O2 Released” value came to 1.0 nmol in test [5] (0.71 nanomoles lysyl oxidase functional active sites), 1.70 nmol in test [5] (1.78 nanomoles lysyl oxidase functional active sites) and 1.52 nmol in test [5] (2.20 nanomoles lysyl oxidase functional active sites). Further, the “formation of H2O2 with catalytic quantities of lysyl oxidase” value in test [5] (2-4 ug lysyl oxidase, limit of sensitivity ca. 1 nanomole of H2O2) is “not detectable”. Moreover, the “Ratio H2O2/Oxidant, mean” value in test [5] (setting [7]) was 1.02 ± 0.29. Also, the “rate of inactivation under anaerobic conditions” value in test [6] is on record as “negligible”. Besides, the reversibility of inhibition result in test [6] (enzyme preincubated with 0.05M cis-DACH at 37° for 15 min, then dialyzed) is given as “irreversible”. Besides, in test [6] (preincubation at 37°, secondary reciprocal plot, read-out: limiting apparent first order rate constant for inactivation, Kinact (converted)), the maximal inactivation rate constant (kinact) is 0.3 s⁻¹.
Regarding `NCCN` [EDA, Ethylenediamine], in test [2] (setting [8]), the Ki is 2 µM. The “rate of inactivation under anaerobic conditions” value in test [6] is on record as “markedly reduced”.
